Like-named read-outs stand apart in the source and are kept apart here.
Key:
[1] = tested on: HCV from sera of patients infected with resistant strains; test: Capture fusion assay: THP-1 cells infected with patient serum, fused with Huh7.5, HCV RNA by PCR; format: cell-based; conditions: for IC50: Hepatitis C virus
Procedure: Serum samples were taken from 30 patients who had either responded to or previously failed treatment with combination peg-interferon/ribavirin and a direct acting antiviral (DAA), e.g., sofosbuvir and ledipasvir, or DAA treatment alone (FIG. 16). The anti-HCV activity of Formula (IIa) was assessed using the capture fusion assay. Briefly, pre-stimulated THP-1 cells were infected with serum from donors chronically infected with the common HCV genotypes G1 or G3, or from patients infected with the less prevalent G2, G4 or G6 HCV. The hybrid cells were treated once with a range of concentrations of Formula (IIa). For comparison, fused cells infected with G1 and G3 sera were treated with telaprevir or alisporivir. The cells were cultured for 5 days, before quantification of HCV RNA by PCR. Dose-response curves were used to calculate IC50 values for each experiment. The detailed assay protocol is outlined below.
Huh7.5 and Huh7 cells were maintained in Dulbecco's modified Eagle medium with glutamine supplemented with 10% fetal calf serum and 1% penicillin/streptomycin (DMEM/10% FCS/PS). THP-1 cells were maintained in RPMI with glutamine supplemented with 10% fetal calf serum and 1% penicillin/streptomycin (RPMI/10% FCS/PS). Peripheral blood mononuclear cells (PBMC) and sera were obtained from patients with chronic HCV infection, with informed consent. Cytokines used were phorbol 12-myristate 13-acetate (PMA, Sigma-Aldrich, Dorset, UK), IFNγ (Invitrogen, Paisley, UK) and osteopontin (R&D Systems, Abingdon, UK). Primary antibodies used were anti-albumin (Dako, Glostrup, Denmark), anti-CD81 (BD Biosciences, Oxford, UK), anti-SR-B1 (Novus Biologicals, Cambridge, UK), anti-CD32 and anti-CD64 (Abcam, Cambridge, UK). Mouse IgG1 isotype control was purchased from Biolegend UK (London, UK). Fluorescent secondary antibodies AlexaFluor488 and 594 anti-sheep, anti-mouse and anti-rabbit IgG were purchased from Invitrogen.
PBMCs were separated from whole blood by centrifugation on Ficoll-Paque. The PBMC layer was washed twice before positive selection of CD14+ cells by magnetic separation. Huh7.5 cells were trypsinized and combined with CD14+ cells at a 1:1 ratio. After removal of all supernatant, the cell pellet was slowly resuspended in prewarmed polyethylene glycol 1500 (Roche Diagnostics, Burgess Hill, UK). After incubation at 37° C. for 2 minutes, prewarmed medium (DMEM/10% FCS/PS) was added dropwise and the cells washed by centrifugation. The fused cells were seeded into 6 well plates at a density of 5×10^5 cells/mL and maintained at 37° C. until RNA extraction.
THP-1 cells were seeded into 6 well plates at a density of 10^6 cells/mL and maintained in RPMI supplemented with 10% fetal calf serum and 1% penicillin/streptomycin (RPMI/10% FCS/1% PS) for 18 hours, with or without the addition of cytokines. The cells were washed three times and the medium replaced with RPMI/2% FCS and patient serum at a ratio of 1 HCV copy per cell. For antibody blocking experiments, cells were incubated with blocking antibody at 37° C. for one hour before addition of patient serum. After incubation at 37° C. for 18-24 hours, the supernatant was removed and cells were washed three times. Adherent cells were removed using a cell scraper and Huh7.5 cells added at a 1:1 ratio. Cell fusion was performed as described above. The fused cells were seeded into 6 well plates at a density of 10^5 cells/mL and maintained at 37° C. in the presence or absence of antiviral drugs for up to 7 days. In selected experiments, supernatants were pooled from non-drug treated wells and concentrated on a sucrose gradient. In brief, the pooled supernatants were filtered through a 0.45 μm filter then 10 mL of each was layered on 4 mL 20% sucrose. The supernatants were centrifuged at 24,000×g for 2 hours and the resulting pellet resuspended in 1 mL RPMI. […]

[2] = Part A (SAD): plasma PK of Formula (IIa) and its metabolites after a single oral dose of Formula (IIa), fed or fasted; format: in vivo, human; conditions: for Cmax / AUC(0-t) / Tmax / AUC(0-inf) / half-life: human, in vivo; for Cmax / AUC(0-t) / Tmax: po
Procedure: The study was a Phase 1, two-part, first-in-human study of single (Part A) and multiple (Part B) ascending doses (SAD and MAD) of Formula (IIa) at doses of 100-900 mg given as a monotherapy for up to 7 days. Subjects were enrolled at multiple sites in Australia and New Zealand. For both Parts A and B, the Safety Review Committee (SRC) determined whether dose escalation occurred after review of all safety data and any available PK/PD data. Part A was an open label, randomized SAD study consisting of four cohorts of two subjects each, with one subject randomized to be dosed in the fed state and the other in the fasted state, at doses of 100 mg to 800 mg Formula (IIa). All subjects were given a single dose of Formula (IIa) orally.
All plasma PK calculations were performed using actual time points calculated relative to the time of last drug administration.
PK analysis was conducted for all enrolled subjects that received any dose of Formula (IIa) with sufficient plasma sample data to assess PK parameters. […] Data analysis was performed using a validated version of WinNonlin® Enterprise (Version 5.2) software, and summary tables and figures were generated using a validated version of WinNonlin® Autopilot™ (Version 1.1.1) and other reporting tools, including SigmaPlot®.

CO[C@H]1C(OP(=O)(OC[C@H]2O[C@@H](n3cnc4c(N)ncnc43)CC2O)SCOC(=O)OC(C)C)[C@@H](CO)O[C@H]1n1ccc(=O)[nH]c1=O (stereo partly shown) [Formula (IIa)]
IC50 ([1]; five selected patient samples with NS5A mutations (Example 4, FIGS. 18A-18E), read-out: IC50 range): ≥ 1 nM
IC50 ([1]; genotype 3, genotype 3, treatment experienced group, mean±sem): 22 nM
IC50 ([1]; genotype 3, genotype 3, treatment naive group, mean±sem, read-out: IC50): 26 ± 7 nM
IC50 ([1]; patient sample post-peg/RBV treatment, read-out: IC50): 455 nM
IC50 ([1]; patient sample pre-peg/RBV treatment, read-out: IC50): 450 nM
IC50 ([1]; sample from patient 7 prior to administration of telaprevir, FIG. 14A, read-out: IC50): 450 nM
IC50 ([1]; sample from patient 22, repeated relapse after combination interferon and ribavirin therapy (IFN resistant), FIG. 12A, read-out: IC50): 24 nM
IC50 ([1]; sample from patient 23, relapse of HCV infection (IFN resistant), FIG. 12B, read-out: IC50): 5.46 nM
IC50 ([1]; sample from patient 25 after treatment with telaprevir, FIG. 14B, read-out: IC50): 6.4 nM
IC50 ([1]; serum sample from patient 30, sofosbuvir resistant strain, FIG. 13C, read-out: IC50): 4 nM
IC50 ([1]; serum samples from 30 patients (Example 3), read-out: IC50 range for all patient samples): 1 to 455 nM
genotype coverage of anti-HCV activity ([1]; patient sera of HCV genotypes G1, G3, G2, G4 or G6): pan-genotypic activity
sensitivity of sample to treatment ([1]; post-treatment sample of patient who relapsed after sofosbuvir-containing therapy, FIG. 24C): sensitive
Cmax ([2]; 200 mg, single oral 200 mg Formula (IIa), fasted, plasma, N=1): 0.577 ng/mL
AUC(0-t) ([2]; 200 mg, single oral 200 mg Formula (IIa), fasted, plasma, N=1, read-out: AUC0-24): 0.433 ng·h/mL
AUC(0-t) ([2]; 200 mg, single oral 200 mg Formula (IIa), fasted, plasma, N=1, read-out: AUC0-t): 0.289 ng·h/mL
Tmax ([2]; 200 mg, single oral 200 mg Formula (IIa), fasted, plasma, N=1, read-out: Tmax): 1 h
Cmax ([2]; 200 mg, single oral 200 mg Formula (IIa), fed, plasma, N=1): 0.261 ng/mL
AUC(0-t) ([2]; 200 mg, single oral 200 mg Formula (IIa), fed, plasma, N=1, read-out: AUC0-24): 0.131 ng·h/mL
AUC(0-t) ([2]; 200 mg, single oral 200 mg Formula (IIa), fed, plasma, N=1, read-out: AUC0-t): 0.0653 ng·h/mL
Tmax ([2]; 200 mg, single oral 200 mg Formula (IIa), fed, plasma, N=1, read-out: Tmax): 2 h
Cmax ([2]; 400 mg, single oral 400 mg Formula (IIa), fasted, plasma, N=1): 1.16 ng/mL
AUC(0-t) ([2]; 400 mg, single oral 400 mg Formula (IIa), fasted, plasma, N=1, read-out: AUC0-24): 1.37 ng·h/mL
AUC(0-t) ([2]; 400 mg, single oral 400 mg Formula (IIa), fasted, plasma, N=1, read-out: AUC0-t): 1.31 ng·h/mL
Tmax ([2]; 400 mg, single oral 400 mg Formula (IIa), fasted, plasma, N=1, read-out: Tmax): 2.5 h
Cmax ([2]; 400 mg, single oral 400 mg Formula (IIa), fed, plasma, N=1): 0.574 ng/mL
AUC(0-t) ([2]; 400 mg, single oral 400 mg Formula (IIa), fed, plasma, N=1, read-out: AUC0-24): 1.13 ng·h/mL
AUC(0-t) ([2]; 400 mg, single oral 400 mg Formula (IIa), fed, plasma, N=1, read-out: AUC0-t): 1.07 ng·h/mL
Tmax ([2]; 400 mg, single oral 400 mg Formula (IIa), fed, plasma, N=1, read-out: Tmax): 1.5 h
Cmax ([2]; 800 mg, single oral 800 mg Formula (IIa), fasted, plasma, N=1): 0.734 ng/mL
AUC(0-t) ([2]; 800 mg, single oral 800 mg Formula (IIa), fasted, plasma, N=1, read-out: AUC0-24): 0.809 ng·h/mL
AUC(0-t) ([2]; 800 mg, single oral 800 mg Formula (IIa), fasted, plasma, N=1, read-out: AUC0-t): 0.751 ng·h/mL
Tmax ([2]; 800 mg, single oral 800 mg Formula (IIa), fasted, plasma, N=1, read-out: Tmax): 1 h
Cmax ([2]; 800 mg, single oral 800 mg Formula (IIa), fed, plasma, N=1): 0.486 ng/mL
AUC(0-t) ([2]; 800 mg, single oral 800 mg Formula (IIa), fed, plasma, N=1, read-out: AUC0-24): 0.96 ng·h/mL
AUC(0-t) ([2]; 800 mg, single oral 800 mg Formula (IIa), fed, plasma, N=1, read-out: AUC0-t): 0.9 ng·h/mL
Tmax ([2]; 800 mg, single oral 800 mg Formula (IIa), fed, plasma, N=1, read-out: Tmax): 1.5 h
Tmax ([2]; single oral Formula (IIa), subjects dosed under fasted conditions, read-out: Individual Tmax range): 1 to 2.5 h
Tmax ([2]; single oral Formula (IIa), subjects dosed under fed conditions, read-out: Individual Tmax range): 1.5 to 2 h
AUC(0-inf) ([2]; single oral 400 mg Formula (IIa), fed, plasma, N=1): 1.43 ng·h/mL
half-life ([2]; single oral 400 mg Formula (IIa), fed, plasma, N=1, read-out: t1/2 (converted)): 1.16 h
AUC(0-inf) ([2]; single oral 800 mg Formula (IIa), fed, plasma, N=1): 1.39 ng·h/mL
half-life ([2]; single oral 800 mg Formula (IIa), fed, plasma, N=1, read-out: t1/2 (converted)): 1.42 h
half-life ([2]; two fed subjects (400 mg and 800 mg dose cohorts), read-out: half-life (terminal phase), range): 1.16 to 1.42 h
measurable Formula (IIa) concentrations in plasma ([2]; single oral 100 mg Formula (IIa), fasting and fed): no measurable Formula (IIa) concentrations
AUC0-t in the fasted subject higher than the fed subject ([2]; single oral 200 mg Formula (IIa)): 4 fold
peak plasma concentrations in the fasted subjects, times higher compared to the fed subjects ([2]; single oral 400 mg Formula (IIa)): 2.0 times
peak plasma concentrations in the fasted subjects, times higher compared to the fed subjects ([2]; single oral 800 mg Formula (IIa)): 1.5 times
measurable concentrations of Formula (IIa) in plasma ([2]; single oral dose levels of 100 mg and 200 mg): did not produce measurable concentrations
